# Reference: patent US20230255972A1, “PYRIMIDINE COMPOUND-CONTAINING COMBINATION TO BE USED IN TUMOR TREATMENT” (TAIHO PHARMACEUTICAL CO., LTD., priority 2020, published 2023)
# Where two headings read alike, the source gives them in different places.
# Tests used:
# [1] = biological target: T1, human HER2 exon 20 insertion mutant (A775_G776insYVMA) protein (Homo sapiens, UniProt P04626, INS775YVMA); assay: Inhibitory action (in vitro) against HER2 exon 20 insertion mutant phosphorylation activity; assay type: biochemical; settings: pre-incubated 30 minutes, ATP 200 μM, 25°C, 220 minutes; read-out: HER2ex20insYVMA inhibitory activity IC50 value
# T1 construct: purchased SignalChem
# T1 sequence (P04626 with tags, fused parts or gaps INS775YVMA limits assumed): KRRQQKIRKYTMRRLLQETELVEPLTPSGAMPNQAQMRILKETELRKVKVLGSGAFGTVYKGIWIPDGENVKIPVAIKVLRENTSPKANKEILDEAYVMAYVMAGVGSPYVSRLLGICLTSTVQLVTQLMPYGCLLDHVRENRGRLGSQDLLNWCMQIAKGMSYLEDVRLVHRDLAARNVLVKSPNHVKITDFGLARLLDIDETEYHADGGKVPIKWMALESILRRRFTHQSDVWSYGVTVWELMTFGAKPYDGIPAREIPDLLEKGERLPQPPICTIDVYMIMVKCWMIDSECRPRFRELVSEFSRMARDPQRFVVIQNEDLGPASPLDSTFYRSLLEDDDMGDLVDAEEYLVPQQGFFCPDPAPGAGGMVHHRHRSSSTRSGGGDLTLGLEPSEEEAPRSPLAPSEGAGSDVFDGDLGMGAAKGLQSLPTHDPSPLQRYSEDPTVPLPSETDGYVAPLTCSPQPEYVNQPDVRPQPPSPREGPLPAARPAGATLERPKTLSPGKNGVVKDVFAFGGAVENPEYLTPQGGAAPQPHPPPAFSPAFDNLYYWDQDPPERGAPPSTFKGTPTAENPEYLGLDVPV
# From the text: Test Example 2 Measurement of Inhibitory Action (In Vitro) Against HER2 Exon 20 Insertion Mutant (HER2ex20insYVMA) Phosphorylation Activity
# In order to determine conditions for a method of measuring the in vitro inhibitory activity of a compound against HER2 exon 20 insertion mutant phosphorylation activity, as in the case of HER2, ProfilerPro Peptide 22 was used as a substrate. A purified recombinant human HER2 exon 20 insertion mutant (A775_G776insYVMA) protein was purchased from SignalChem. Upon the measurement of the inhibitory activity of the compound, first, the pyrimidine compound of the present invention was diluted stepwise with dimethyl sulfoxide (DMSO). Subsequently, the HER2 exon 20 insertion mutant protein and the pyrimidine compound of the present invention in DMSO solution (final concentration of DMSO: 5%) were added into a buffer for the kinase reaction (13.5 mM Tris (pH 7.5), 2 mM dithiothreitol, and 0.009% Tween 20), and the obtained mixture was then pre-incubated at 25° C. for 30 minutes. Thereafter, the substrate peptide (final concentration: 1 μM), manganese chloride (final concentration: 25 mM), magnesium chloride (final concentration: 20 mM), and ATP (final concentration: 200 μM) were added into the reaction mixture, and the thus obtained mixture was then incubated at 25° C. for 220 minutes, so that the kinase reaction was carried out. To the reaction solution, EDTA was added to a final concentration of 30 mM, so as to terminate the reaction. Finally, using LabChip (registered trademark) EZ Reader II (PerkinElmer), an unphosphorylated substrate peptide (S) and a phosphorylated peptide (P) were separated and detected according to microchannel capillary electrophoresis.
# [2] = biological target: T2, EGFR (Homo sapiens, UniProt P00533); assay: Phosphorylation activity inhibitory effect (in vitro) on wild-type EGFR; assay type: biochemical
# T2 construct: purchased Carna Biosciences, Inc
# T2 sequence (P00533 25-1210): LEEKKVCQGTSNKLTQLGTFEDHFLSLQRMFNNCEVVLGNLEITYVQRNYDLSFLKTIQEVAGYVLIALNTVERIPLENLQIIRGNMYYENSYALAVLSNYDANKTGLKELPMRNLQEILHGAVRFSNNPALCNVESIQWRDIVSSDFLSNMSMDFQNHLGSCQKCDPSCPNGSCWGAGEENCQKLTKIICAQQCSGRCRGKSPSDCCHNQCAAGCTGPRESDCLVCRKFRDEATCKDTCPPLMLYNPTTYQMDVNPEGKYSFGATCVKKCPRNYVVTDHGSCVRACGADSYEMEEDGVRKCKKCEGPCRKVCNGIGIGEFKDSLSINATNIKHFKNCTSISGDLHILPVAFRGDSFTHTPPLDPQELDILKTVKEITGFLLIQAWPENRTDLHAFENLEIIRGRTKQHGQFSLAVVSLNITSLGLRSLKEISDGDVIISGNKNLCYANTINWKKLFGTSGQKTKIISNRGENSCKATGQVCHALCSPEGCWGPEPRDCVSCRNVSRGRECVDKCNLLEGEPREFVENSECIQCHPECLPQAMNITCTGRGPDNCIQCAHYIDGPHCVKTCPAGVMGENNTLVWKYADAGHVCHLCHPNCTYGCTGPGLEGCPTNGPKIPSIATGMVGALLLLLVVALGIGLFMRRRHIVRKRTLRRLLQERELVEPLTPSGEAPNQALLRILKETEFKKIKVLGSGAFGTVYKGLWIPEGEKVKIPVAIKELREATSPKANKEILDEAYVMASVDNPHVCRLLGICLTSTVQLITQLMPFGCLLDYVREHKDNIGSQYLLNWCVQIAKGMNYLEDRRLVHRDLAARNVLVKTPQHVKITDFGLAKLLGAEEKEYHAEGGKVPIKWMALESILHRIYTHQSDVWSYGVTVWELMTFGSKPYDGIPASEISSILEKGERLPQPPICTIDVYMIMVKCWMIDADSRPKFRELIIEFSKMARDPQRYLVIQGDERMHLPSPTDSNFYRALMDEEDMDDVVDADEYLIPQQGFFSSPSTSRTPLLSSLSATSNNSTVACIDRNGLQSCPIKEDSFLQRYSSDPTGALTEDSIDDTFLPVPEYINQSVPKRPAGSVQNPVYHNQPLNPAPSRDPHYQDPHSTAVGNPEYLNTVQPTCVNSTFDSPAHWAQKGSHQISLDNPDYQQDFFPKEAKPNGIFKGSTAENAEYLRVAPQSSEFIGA
# Experimental: (§1) Test Example 6 Measurement of Phosphorylation Activity Inhibitory Effect (In Vitro) on Wild-Type and Mutant EGFR
# (§2) The measurement of the in vitro inhibitory activity of a compound against wild-type and mutant EGFR was outsourced to Carna Biosciences, Inc. (Kinase Profiling Book, https://www.carnabio.com/japanese/product/search.cgi?mode=profiling).
# (§3) Specifically, first, the pyrimidine compound of the present invention was diluted stepwise with dimethyl sulfoxide (DMSO). […] To the reaction solution, Termination Buffer was added, so as to terminate the kinase reaction. Finally, using LabChip™ EZ Reader II (PerkinElmer), an unphosphorylated substrate peptide (S) and a phosphorylated peptide (P) were separated and detected according to microchannel capillary electrophoresis.
# (§4) As the pyrimidine compound of the present invention, the compound of Example 11 (Example compound 11) was used.
# [3] = biological target: T3, EGFR [d746-750/T790M] (Homo sapiens, UniProt P00533, DEL746-750/T790M); assay: Phosphorylation activity inhibitory effect (in vitro) on mutant EGFR d746-750/T790M; assay type: biochemical
# T3 construct: purchased Carna Biosciences, Inc
# Experimental: as §1, §2, §3, §4
# [4] = biological target: T4, EGFR [L858R] (Homo sapiens, UniProt P00533, L858R); assay: Phosphorylation activity inhibitory effect (in vitro) on mutant EGFR L858R; assay type: biochemical
# T4 construct: purchased Carna Biosciences, Inc
# T4 sequence (P00533 25-1210 L858R): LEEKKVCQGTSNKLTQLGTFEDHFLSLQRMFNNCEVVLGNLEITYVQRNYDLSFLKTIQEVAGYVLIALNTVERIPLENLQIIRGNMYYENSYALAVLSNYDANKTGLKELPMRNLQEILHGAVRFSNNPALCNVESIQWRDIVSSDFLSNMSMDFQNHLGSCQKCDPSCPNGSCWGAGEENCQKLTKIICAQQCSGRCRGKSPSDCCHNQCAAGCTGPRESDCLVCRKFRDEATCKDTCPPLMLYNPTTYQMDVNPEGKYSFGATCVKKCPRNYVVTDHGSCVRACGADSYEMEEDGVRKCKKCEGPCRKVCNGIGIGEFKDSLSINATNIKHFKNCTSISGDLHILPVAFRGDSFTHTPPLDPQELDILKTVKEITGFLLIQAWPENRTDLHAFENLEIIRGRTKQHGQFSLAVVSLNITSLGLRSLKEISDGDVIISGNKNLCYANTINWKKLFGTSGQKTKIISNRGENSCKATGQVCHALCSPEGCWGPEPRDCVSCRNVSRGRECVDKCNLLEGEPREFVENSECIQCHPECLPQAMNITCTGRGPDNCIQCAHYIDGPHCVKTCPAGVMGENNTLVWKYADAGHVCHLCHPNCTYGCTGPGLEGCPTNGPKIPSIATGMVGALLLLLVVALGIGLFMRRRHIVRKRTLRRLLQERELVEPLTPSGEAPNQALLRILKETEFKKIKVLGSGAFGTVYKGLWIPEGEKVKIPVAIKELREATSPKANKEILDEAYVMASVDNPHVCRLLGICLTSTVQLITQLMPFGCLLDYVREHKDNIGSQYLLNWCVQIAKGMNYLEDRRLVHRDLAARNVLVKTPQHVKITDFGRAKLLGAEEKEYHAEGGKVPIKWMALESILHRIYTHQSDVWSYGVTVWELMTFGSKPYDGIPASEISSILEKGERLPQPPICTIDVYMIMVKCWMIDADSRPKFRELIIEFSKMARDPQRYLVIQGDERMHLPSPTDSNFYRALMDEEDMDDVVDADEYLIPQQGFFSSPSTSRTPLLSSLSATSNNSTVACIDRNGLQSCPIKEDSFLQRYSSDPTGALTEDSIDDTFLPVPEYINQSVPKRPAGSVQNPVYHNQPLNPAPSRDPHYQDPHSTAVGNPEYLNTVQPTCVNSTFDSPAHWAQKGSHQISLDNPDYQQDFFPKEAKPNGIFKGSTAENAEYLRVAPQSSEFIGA
# Experimental: as §1, §2, §3, §4
# [5] = biological target: T5, EGFR [T790M/L858R] (Homo sapiens, UniProt P00533, L858R/T790M); assay: Phosphorylation activity inhibitory effect (in vitro) on mutant EGFR T790M/L858R; assay type: biochemical
# T5 construct: purchased Carna Biosciences, Inc
# T5 sequence (P00533 25-1210 T790M/L858R): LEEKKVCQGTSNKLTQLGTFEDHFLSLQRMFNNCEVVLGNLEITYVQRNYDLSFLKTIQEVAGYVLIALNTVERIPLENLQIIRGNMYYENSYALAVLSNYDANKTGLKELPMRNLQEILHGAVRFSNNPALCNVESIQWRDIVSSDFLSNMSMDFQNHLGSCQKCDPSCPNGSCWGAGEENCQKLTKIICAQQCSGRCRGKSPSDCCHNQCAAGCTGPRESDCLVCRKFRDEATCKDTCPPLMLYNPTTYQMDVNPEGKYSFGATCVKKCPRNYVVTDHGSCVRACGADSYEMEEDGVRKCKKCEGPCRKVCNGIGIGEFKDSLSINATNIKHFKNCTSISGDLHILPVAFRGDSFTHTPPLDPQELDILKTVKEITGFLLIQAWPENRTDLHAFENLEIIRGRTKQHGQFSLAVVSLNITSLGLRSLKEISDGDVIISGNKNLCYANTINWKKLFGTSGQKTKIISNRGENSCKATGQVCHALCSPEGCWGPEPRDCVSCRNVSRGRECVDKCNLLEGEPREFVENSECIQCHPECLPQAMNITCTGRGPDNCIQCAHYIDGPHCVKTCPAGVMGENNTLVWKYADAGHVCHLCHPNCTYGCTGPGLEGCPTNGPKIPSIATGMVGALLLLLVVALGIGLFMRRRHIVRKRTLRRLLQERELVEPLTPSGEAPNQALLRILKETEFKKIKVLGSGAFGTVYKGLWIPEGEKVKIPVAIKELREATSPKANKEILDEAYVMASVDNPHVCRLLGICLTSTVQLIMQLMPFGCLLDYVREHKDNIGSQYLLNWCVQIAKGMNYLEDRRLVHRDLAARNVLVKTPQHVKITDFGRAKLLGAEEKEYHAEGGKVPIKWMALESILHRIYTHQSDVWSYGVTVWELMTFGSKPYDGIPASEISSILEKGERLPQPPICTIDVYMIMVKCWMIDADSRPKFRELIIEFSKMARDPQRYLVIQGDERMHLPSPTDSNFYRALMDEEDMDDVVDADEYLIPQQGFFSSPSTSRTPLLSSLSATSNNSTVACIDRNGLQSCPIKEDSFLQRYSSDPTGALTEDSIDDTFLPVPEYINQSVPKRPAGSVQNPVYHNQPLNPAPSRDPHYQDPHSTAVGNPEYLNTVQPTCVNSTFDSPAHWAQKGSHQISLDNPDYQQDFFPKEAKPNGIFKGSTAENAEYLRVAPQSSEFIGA
# Experimental: as §1, §2, §3, §4
# [6] = test system: NCI-N87-Luc; assay: Antitumor effect (in vivo) on direct brain transplantation models of NCI-N87-luc; parameters: species or system nude mouse; settings: 25 mg/kg/day po once a day, Days 1-21
# From the text: Test Example 11 Antitumor Effect Confirmation Test (In Vivo) on Direct Brain Transplantation Models, into which Luciferase Gene-Introduced HER2 Expressing Cell Line (NCI-N87-luc) is Directly Transplanted
# In order to confirm the antitumor effects of a test compound on direct brain transplantation models, NCI-N87-Luc, which was obtained by introducing a Luciferase gene into NCI-N87 that was a human stomach cancer tumor cell line purchased from American Type Culture Collection, was used.
# The NCI-N87-Luc cells were re-suspended in PBS in a concentration of 6.25×10^7 cells/mL.
# A microdrill was used to drill a hole in the skull, and then, using a needle, a manipulator, and a syringe pump, 4 μL of the cell suspension was transplanted into the brain at a rate of 0.8 μL/min.
# As a reference of the amount of brain tumor, approximately 3 weeks after the transplantation, Total Flux (Photon/sec) was measured in all of the survival cases, using IVIS (PerkinElmer, Inc., model: Lumina II). Based on the obtained results, 6 animals were assigned to each group, using the grouping program of MiSTAT (Ver. 2.00).
# The test compound was orally administered to the mice once a day, every day, for 21 days from the following day of the grouping (Days 1-21). […]
# The value obtained by logarithmic transformation (Log 10) of the total flux on Day 22 in each group was analyzed by a Dunnett's test or a Student-t test. […]
# [7] = test system: Human stomach cancer-derived tumor cells 4-1ST
# Experimental: Human stomach cancer-derived tumor cells 4-1ST were obtained as fragment tumor from the Central Institute for Experimental Animals. Tumor was removed approximately 1 month after subcutaneous transplantation and passage in a 6 week old male nude mouse (BALB/cAJc1-nu/nu, CLEA Japan, Inc.), and a fragment of approximately 2 mm square was prepared. A transplantation needle was filled with one fragment and subcutaneously inserted from around the right last rib of each nude mouse so as to enter the right back. The tumor was pushed out by pressing the inner syringe and thereby transplanted. For the measurement of the tumor size, electronic calipers were used. […] A tumor volume (TV) was calculated from this major axis and minor axis. A relative tumor volume change percentage (T/C) was calculated from the calculated tumor volume. TV and T/C were calculated according to the following equations:
# (§5) Tumor Volume (TV)(mm^3)=(Major axis,mm)×(Minor axis,mm)×(Minor axis,mm)/2
# (§6) Relative tumor volume change percentage (T/C)(%)=(Mean TV of the administration group)/(Mean TV of a control group)×100
# (§7) For the measurement of the body weight, an animal electronic balance was used. A body weight change percentage on the n^th day (BWCn) from the body weight on 0th day (BW0) and the body weight on the n^th day (BWn) was calculated according to the following equation:
# (§8) Body weight change percentage BWCn (%)=(BWn−BW0)/BW0×100
# Nude mice having TV of 50 to 300 mm^3 were selected and assigned to groups each involving 6 animals by the equal number method [MiSTAT (ver. 2.1)] such that the means of TV were equal among the groups. […] An untreated group was used as a control.
# (§9) The presence or absence of a combinatorial effect and toxicity was judged from the tumor sizes and the body weights on the grouping day (Day 0) and the judgement day (Day 15). During the administration period, the body weight was measured every day for calculation of the amount of the dosing solution.
# An untreated group was used as a control.
# [8] = test system: Human stomach cancer-derived tumor cells 4-1ST; settings: for BWC (%, Mean ± SE) / T/C (%) / TV (mm^3, mean ± SE): Day 15; for BWC (%, Mean ± SE) / T/C (%) / TV (mm^3, mean ± SE) / Number of Death / cCR (%) / pCR (%): Days 1-14, po; for cCR (%): clinical CR (TV=0); for pCR (%): pathological CR
# Experimental: Tumor was removed approximately 1 month after subcutaneous transplantation and passage in a 6 week old male nude mouse (BALB/cAJc1-nu/nu, CLEA Japan, Inc.), and a fragment of approximately 2 mm square was prepared. A transplantation needle was filled with one fragment and subcutaneously inserted from around the right last rib of each nude mouse so as to enter the right back. The tumor was pushed out by pressing the inner syringe and thereby transplanted. For the measurement of the tumor size, electronic calipers were used. […] A tumor volume (TV) was calculated from this major axis and minor axis. A relative tumor volume change percentage (T/C) was calculated from the calculated tumor volume. TV and T/C were calculated according to the following equations:
# as §5, §6, §7, §8
# Nude mice having TV of 100 to 300 mm^3 were selected and assigned to groups each involving 6 animals by the equal number method [MiSTAT (ver. 2.0)] such that the means of TV were equal among the groups. […] An untreated group was used as a control.
# as §9
# When an individual of TV=0 was found, a complete response (hereinafter, CR) rate was also set as an evaluation item. For the judgement of CR, clinical CR (cCR) based on TV=0 and pathological CR (pCR) based on pathological test were used.
# CR rate=(The number of CR individuals in a group found to have CR)/(Total number of individuals in the group found to have CR)×100
# [9] = Day 15, Example 11 6.25 mg/kg/day, Days 1-14, po
compound,measurement,setting,value
"C=CC(=O)N1C[C@H](n2c(C#CC3CC3)c(C(=O)N[C@H](C)c3ccccc3)c3c(N)ncnc32)C[C@@H]1C [Example 11, 7-((3R,5S)-1-acryloyl-5-methylpyrrolidin-3-yl)-4-amino-6-(cyclopropylethynyl)-N—((R)-1-phenylethyl)-7H-pyrrolo[2,3-d]pyrimidine-5-carboxamide]",IC50,[1],< 0.3 nM
same,IC50,[2],0.47 nM
same,IC50,[3],6.8 nM
same,IC50,[4],0.36 nM
same,IC50,[5],6.6 nM
same,body weight reduction of −20% or more,[6],not observed
same,"BWC (%, Mean ± SE)",[7]; [9],4.0 ± 0.7%
same,T/C (%),[7]; [9],14.5%
same,"TV (mm^3, mean ± SE)",[7]; [9],233.6 ± 42.6 mm^3
same,Number of Death,"[7]; Example 11 6.25 mg/kg/day, Days 1-14, po",0
same,TV on Day 15 versus control group (Dunnett's test),"[7]; trastuzumab emtansine iv Day 1, Example 11 po Days 1-14",significantly lower TV
same,"BWC (%, Mean ± SE)",[8]; Example 11 6.25 mg/kg/day,5.93 ± 0.25%
same,T/C (%),[8]; Example 11 6.25 mg/kg/day,17.3%
same,"TV (mm^3, mean ± SE)",[8]; Example 11 6.25 mg/kg/day,295.9 ± 67.3 mm^3
same,"BWC (%, Mean ± SE)",[8]; Example 11 12.5 mg/kg/day,4.77 ± 1.14%
same,T/C (%),[8]; Example 11 12.5 mg/kg/day,1.9%
same,"TV (mm^3, mean ± SE)",[8]; Example 11 12.5 mg/kg/day,31.9 ± 10.7 mm^3
same,Number of Death,[8]; Example 11 6.25 mg/kg/day,0
same,Number of Death,[8]; Example 11 12.5 mg/kg/day,0
same,TV on Day 15 versus control group (Dunnett's test),"[8]; T-mab and P-mab iv Day 1, Example 11 po Days 1-14",significantly lower TV
same,cCR (%),[8]; Example 11 6.25 mg/kg/day,0%
same,cCR (%),[8]; Example 11 12.5 mg/kg/day,33%
same,pCR (%),[8]; Example 11 6.25 mg/kg/day,0%
same,pCR (%),[8]; Example 11 12.5 mg/kg/day,33%
"C=CC(=O)N1C[C@H](n2c(C#CC(C)(C)C)c(C(=O)N[C@H](C)c3ccccc3)c3c(N)ncnc32)C[C@@H]1C [Example 12, 7-((3R,5S)-1-acryloyl-5-methylpyrrolidin-3-yl)-4-amino-6-(3,3-dimethylbut-1-yn-1-yl)-N—((R)-1-phenylethyl)-7H-pyrrolo[2,3-d]pyrimidine-5-carboxamide]",IC50,[1],0.39 nM
"C=CC(=O)N1C[C@H](n2c(C#CC)c(C(=O)N[C@H](C)c3ccccc3)c3c(N)ncnc32)C[C@@H]1C [Example 2, 7-((3R,5S)-1-acryloyl-5-methylpyrrolidin-3-yl)-4-amino-N—((R)-1-phenylethyl)-6-(prop-1-yn-1-yl)-7H-pyrrolo[2,3-d]pyrimidine-5-carboxamide]",IC50,[1],< 0.3 nM
same,body weight reduction of −20% or more,[6],not observed
